This note sets out measurements from ChEMBL document CHEMBL1138423, “TOMOCOMD-CARDD descriptors-based virtual screening of tyrosinase inhibitors: evaluation of different classification model combinations using bond-based linear indices” (Bioorg Med Chem, 2007).

For this assay, the target named is T1, Tyrosinase (Agaricus bisporus, UniProt O42713).
T1 sequence (O42713 whole entry): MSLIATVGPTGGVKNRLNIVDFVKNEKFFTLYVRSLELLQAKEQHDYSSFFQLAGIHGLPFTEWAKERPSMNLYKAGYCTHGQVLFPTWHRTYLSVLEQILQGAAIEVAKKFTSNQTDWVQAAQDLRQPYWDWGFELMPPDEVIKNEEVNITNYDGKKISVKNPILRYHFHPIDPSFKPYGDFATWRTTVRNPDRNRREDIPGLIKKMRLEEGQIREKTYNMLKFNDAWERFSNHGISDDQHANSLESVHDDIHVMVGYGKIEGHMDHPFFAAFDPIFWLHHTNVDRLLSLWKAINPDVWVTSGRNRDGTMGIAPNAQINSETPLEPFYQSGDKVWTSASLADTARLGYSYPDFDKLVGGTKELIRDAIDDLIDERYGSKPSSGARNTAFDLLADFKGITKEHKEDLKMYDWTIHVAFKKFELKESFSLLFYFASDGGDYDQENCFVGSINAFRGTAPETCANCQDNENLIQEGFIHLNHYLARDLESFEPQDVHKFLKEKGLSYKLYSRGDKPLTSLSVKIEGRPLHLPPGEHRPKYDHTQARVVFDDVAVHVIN
As to the kind of experiment: Inhibition of mushroom tyrosinase after 10 mins.
Usually IC50 stands for the concentration needed to halve the response being measured. A high value points to lower potency. Compound `CC[C@]1(O)CC[C@H]2[C@@H]3CCC4=CC(=O)CC[C@]4(C)[C@H]3[C@H](O)C[C@@]21C` showed an IC50 of 1.72 µM.

Take `CC[C@]1(O)CC[C@H]2[C@@H]3CCC4=CC(=O)CC[C@]4(C)[C@H]3CC[C@@]21C`: the half-inhibitory concentration (IC50) is 1.53 µM. For `C#CC1(O)CC[C@H]2[C@@H]3CCC4=CC(=O)CC[C@]4(C)[C@H]3[C@H](O)C[C@@]21C` (single isomer, unassigned) the value was 5.95 µM; for `CC[C@]1(O)CC[C@H]2[C@@H]3CCC4=CC(=O)C=C[C@]4(C)[C@H]3CC[C@@]21C`, 3.46 µM. Next, `C#CC1(O)CC[C@H]2[C@@H]3CCC4=CC(=O)CC[C@]4(C)[C@H]3CC[C@@]21C` (single isomer, unassigned) [ETHISTERONE]: 2.61 µM; `C#CC1(O)CC[C@H]2[C@@H]3CCC4=CC(=O)C=C[C@]4(C)[C@H]3CC[C@@]21C` (single isomer, unassigned): 7.89 µM.
